Patent publication US20230250077A1, “SULFONYLBENZAMIDE DERIVATIVE AND CONJUGATE THEREOF, PREPARATION METHOD THEREFOR AND USE THEREOF” (Jiangsu Hengrui Pharmaceuticals Co., Ltd., priority 2020, published 2023)

Experiments:
RS4;11 cells = test: Inhibition of proliferation of RS4;11 cells (CellTiter-Glo); assay type: cell-based; conditions: Homo sapiens, 72 h, 3 days, read-out: Inhibitory activity IC50 (nM) for the proliferation of RS4;11 cells
Experimental: In vitro inhibitory activity for the proliferation of RS4;11 cells and NCI-H146 cells was tested by the following method.
Reagents used in this experiment: RPMI-1640 medium (HyCLone, Cat #SH30243018); fetal bovine serum (Gibco, Cat #10099-141); pancreatin (Gibco, Cat #25200-072); Cell Titer-Glo (Promega, Cat #G7571).
Materials used: RS4;11 cells (Nanjing Kebai Biotechnology Co., Ltd, Cat #CBP60641); and NCI-H146 cells (ATCC, Cat #HTB-173).
The in vitro cell proliferation assay described below can determine the inhibitory activity of the test compounds for the proliferation of RS4;11 cells and NCI-H146 cells.
RS4;11 cells (or NCI-H146 cells) were cultured in an RPMI-1640 culture medium containing 10% FBS, and were passaged for 2-3 times a week in a passage ratio of 1:3 or 1:5. During passage, the cells were transferred to a centrifuge tube, and centrifuged at 1200 rpm for 3 min. The supernatant was discarded, and fresh culture medium was added to resuspend the cells. 90 μL of cell suspension was added to a 96-well cell culture plate, wherein RS4;11 cells and NCI-H146 cells were added at a density of 2.22×10^5 cells/mL. Only 100 μL of complete medium (RPMI-1640 medium containing 10% FBS) was added to the periphery of the 96-well plate. The plate was incubated in an incubator for 24 h (37° C., 5% CO2).
The test sample was diluted to a proper concentration gradient with dimethyl sulfoxide as required for the experiment. 5 μL of the solution of the test compound prepared in a gradient concentration was added to 95 μL of fresh culture medium and mixed uniformly, and then 10 μL of the culture medium containing the above compound was added to a cell culture plate. The cell culture plate was incubated in an incubator for 3 days (37° C., 5% CO2). 50 μL of CellTiter-Glo reagent was added into each well of the 96-well cell culture plate. The plate was let stand for 5-10 min away from the light at room temperature. The chemiluminescence signals were read by a microplate reader (BMG Labtech, model: PHERAstar FS) and the data were processed by GraphPad software.

BCL-2 = biological target: T1, BCL-2 (Homo sapiens, UniProt P10415); test: Binding activity for BCL-2 (HTRF, biotin-labeled BIM); conditions: His-tagged BCL-2, biotin-labeled BIM
T1 construct: purchased R&D systems 827-BC-050
T1 sequence (P10415 whole entry): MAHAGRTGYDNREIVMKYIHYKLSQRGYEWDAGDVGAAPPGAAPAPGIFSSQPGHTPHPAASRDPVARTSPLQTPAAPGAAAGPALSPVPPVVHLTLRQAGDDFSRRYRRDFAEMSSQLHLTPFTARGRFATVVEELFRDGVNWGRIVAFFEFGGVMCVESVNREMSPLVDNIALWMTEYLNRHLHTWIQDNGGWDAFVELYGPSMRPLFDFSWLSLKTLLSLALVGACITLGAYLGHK
Experimental: In vitro BCL-2-binding activity was tested by the following method.
(§1) Reagents used in this experiment: His-tagged BCL-2 protein (R&D systems, Cat #827-BC-050); biotin-labeled BIM protein (R&D, Cat #3526/1); binding buffer (cisbio, Cat #62DLBDDF); assay buffer (cisbio, Cat #62DB1FDG); MAb anti-6His-Eu cryptate (cisbio, Cat #61HI2KLA); and affinity streptomycin linked XL665 (cisbio, Cat #611SAXLA).
The in vitro binding assay described below can determine the binding activity of test compounds for BCL-2.
(§2) The test compounds were dissolved in dimethyl sulfoxide and diluted to gradient concentrations as required for the experiment, and the compounds at various concentrations formulated in dimethyl sulfoxide were subjected to a 100-fold dilution with a binding buffer. BCL-2 was diluted to the corresponding concentration with a binding buffer solution, and added to a white 384-well plate at 4 μL/well. Then the diluted test compound was added into the white 384-well plate at 2 μL/well. The plate was incubated at 25° C. for 1 h after the mixture was uniformly mixed. Biotin-labeled BIM protein was diluted to the corresponding concentration with a binding buffer, and added to a white 384-well plate at 4 μL/well. The plate was incubated at 25° C. for 2 h after the mixture was uniformly mixed. The MAb anti-6His-Eu cryptate and the affinity streptomycin linked XL665 were each diluted to the corresponding concentration with an assay buffer, and added to a white 384-well plate at 5 μL/well. The plate was incubated at 25° C. for 2-4 h after the mixture was uniformly mixed. The signal values were read with the HTRF program in a microplate reader (BMG Labtech, model: PHERAstar FS).

BCL-xL = biological target: T2, BCL-xL (Homo sapiens, UniProt Q07817); test: Binding activity for BCL-xL (HTRF, biotin-labeled BIM); conditions: His-tagged BCL-xL
T2 construct: purchased R&D 894-BX-050
T2 sequence (Q07817 whole entry): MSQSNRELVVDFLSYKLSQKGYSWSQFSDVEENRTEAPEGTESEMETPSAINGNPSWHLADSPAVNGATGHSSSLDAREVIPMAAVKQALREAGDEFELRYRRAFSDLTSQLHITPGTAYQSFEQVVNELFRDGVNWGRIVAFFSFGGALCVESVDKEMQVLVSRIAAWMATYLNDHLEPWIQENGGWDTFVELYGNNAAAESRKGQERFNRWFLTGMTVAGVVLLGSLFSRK
Experimental: In vitro BCL-xL-binding activity was tested by the following method.
as §1, with “BCL-xL” for “BCL-2”, “(R&D,” for “(R&D systems,”, “#894-BX-050);” for “#827-BC-050);”
The in vitro binding assay described below can determine the binding activity of test compounds for BCL-xL.
as §2, with “BCL-xL” for “BCL-2”, “buffer,” for “buffer solution,”, “to” for “into”

Compound	IC50 (RS4;11 cells)	Ki (BCL-2)	Ki (BCL-xL)
O=C(NS(=O)(=O)c1ccc(N[C@@H](CSc2ccccc2)C[C@@H]2CCCN2CCO)c(S(=O)(=O)C(F)(F)F)c1)c1ccc(N2CCC([C@@H](O)c3ccccc3-c3ccc(Cl)cc3)CC2)cc1 [Example 2-9, 4-(4-((R)-(4′-chloro-[1,1′-biphenyl]-2-yl)(hydroxy)methyl)piperidin-1-yl)-N-((4-(((R)-1-((S)-1-(2-hydroxyethyl)pyrrolidin-2-yl)-3-(phenylthio)propan-2-yl)amino)-3-((trifluoromethyl)sulfonyl)phenyl)sulfonyl)benzamide]	1.8 nM	0.02 nM	0.07 nM
CN(CCO)CC[C@H](CSc1ccccc1)Nc1ccc(S(=O)(=O)NC(=O)c2ccc(N3CCC([C@@H](O)c4ccccc4-c4ccc(C(F)(F)F)cc4)CC3)cc2)cc1S(=O)(=O)C(F)(F)F [Example 2-10, 4-(4-((R)-hydroxy(4′-(trifluoromethyl)-[1,1′-biphenyl]-2-yl)methyl)piperidin-1-yl)-N-((4-(((R)-4-((2-hydroxyethyl)(methyl)amino)-1-(phenylthio)butan-2-yl)amino)-3-((trifluoromethyl)sulfonyl)phenyl)sulfonyl)benzamide]	1 nM	0.03 nM	0.07 nM
